Reference: patent US9914730B2, “Azaquinazoline inhibitors of Atypical protein Kinase C” (Ignyta, Inc., priority 2012, dated 2018)

Target: T1, full-length human PKCι (Homo sapiens, UniProt P41743)
T1 construct: Recombinant, full-length human PKCι expressed in Sf21 insect cells is also commercially available; purchased; host or cells: Sf21 insect cells
T1 sequence (P41743 1-596): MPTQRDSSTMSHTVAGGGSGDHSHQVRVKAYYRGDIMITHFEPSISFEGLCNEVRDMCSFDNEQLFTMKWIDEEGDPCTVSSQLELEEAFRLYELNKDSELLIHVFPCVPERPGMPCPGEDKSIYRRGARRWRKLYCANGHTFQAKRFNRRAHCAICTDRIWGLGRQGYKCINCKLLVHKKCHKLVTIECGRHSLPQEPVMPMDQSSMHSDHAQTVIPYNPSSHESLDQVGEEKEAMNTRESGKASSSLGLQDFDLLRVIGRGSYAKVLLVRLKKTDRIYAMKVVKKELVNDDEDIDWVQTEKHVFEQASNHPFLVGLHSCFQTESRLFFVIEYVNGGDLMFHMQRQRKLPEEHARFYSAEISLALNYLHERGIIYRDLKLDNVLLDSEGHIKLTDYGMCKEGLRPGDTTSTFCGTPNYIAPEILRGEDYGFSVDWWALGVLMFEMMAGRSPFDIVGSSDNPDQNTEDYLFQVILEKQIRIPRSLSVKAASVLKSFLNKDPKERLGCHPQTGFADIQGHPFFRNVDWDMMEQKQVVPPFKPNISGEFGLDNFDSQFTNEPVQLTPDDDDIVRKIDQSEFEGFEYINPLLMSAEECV
Assay: PKCι IC50 IMAP assay, full-length PKCι at 150 μM ATP
Assay type: biochemical
Conditions: read-out: IC50 in IMAP assay against full length PKCi at 150 μM ATP
Summary of the method: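 Dose-response IC50 values come from IMAP fluorescence polarisation after 60 min room-temperature turnover of 100 nM FAM peptide by ~15 pM insect-cell-expressed full-length PKCι at 150 μM ATP (5× KM^APP), normalised to no-compound and no-enzyme controls.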

| SMILES | IC50 |
| --- | --- |
| COc1cncc2nc(-c3ccnc(NC(=O)Cc4cccc(C#N)c4)c3)nc(N3CCN(C)CC3)c12 [Example 404, 2-(3-Cyano-phenyl)-N-{4-[5-methoxy-4-(4-methyl-piperazin-1-yl)-pyrido[3,4-d]pyrimidin-2-yl]-pyridin-2-yl}-acetamide] | 0.1 to 1 µM |
| Fc1ncccc1Nc1cc(-c2nc(N3CCNCC3)c3c(C4CC4)cncc3n2)ccn1 [Example 495, [4-(5-cyclopropyl-4-piperazin-1-yl-pyrido[3,4-d]pyrimidin-2-yl)-pyridin-2-yl]-(2-fluoro-pyridin-3-yl)-amine] | < 0.1 µM |
| Cc1ccnc(Nc2cc(-c3nc(N4CCNCC4)c4c(Cl)cncc4n3)ccn2)c1 [Example 256, [4-(5-Chloro-4-piperazin-1-yl-pyrido[3,4-d]pyrimidin-2-yl)-pyridin-2-yl]-(4-methyl-pyridin-2-yl)-amine] | < 0.1 µM |
| N[C@H](CNc1nc(-c2ccncc2)nc2c(-c3cccc(O)c3)nccc12)Cc1ccccc1 [Example 92, 3-(4-{[(2S)-2-amino-3-phenylpropyl]-amino}-2-(pyridin-4-yl)-pyrido[3,4-d]-pyrimidin-8-yl)phenol] | 1 to 10 µM |
| COc1cncc2nc(-c3ccnc(Nc4ccc(C(F)(F)F)cc4)c3)nc(N3CCNCC3)c12 [Example 207, [4-(5-Methoxy-4-piperazin-1-yl-pyrido[3,4-d]pyrimidin-2-yl)-pyridin-2-yl]-(4-trifluoromethyl-phenyl)-amine] | 0.1 to 1 µM |
| Nc1cccc(C(=O)Nc2cc(-c3nc(N[C@@H]4CCNC4)c4ccncc4n3)ccn2)c1 [Example 309, 3-Amino-N-{4-[4-((R)-pyrrolidin-3-ylamino)-pyrido[3,4-d]pyrimidin-2-yl]-pyridin-2-yl}-benzamide] | 0.1 to 1 µM |
| Cc1ccc(-c2nccc3c(NC[C@@H](N)Cc4ccccc4)nc(-c4ccncc4)nc23)s1 [Example 111, N-[(2S)-2-amino-3-phenylpropyl]-8-(5-methyl-thiophen-2-yl)-2-(pyridin-4-yl)pyrido[3,4-d]pyrimidin-4-amine] | 0.1 to 1 µM |
| COc1cncc2nc(-c3ccnc(Nc4ccccc4)c3)nc(N3CC[C@@H](O)[C@H](O)C3)c12 (racemic) [Example 437, (±)-trans-1-[5-Methoxy-2-(2-phenylamino-pyridin-4-yl)-pyrido[3,4-d]pyrimidin-4-yl]-piperidine-3,4-diol] | 0.1 to 1 µM |
| CC(C)[C@H]1CN(c2nc(-c3ccncc3)nc3cnccc23)CCN1 [Example 62, (3S)-3-(propan-2-yl)-1-[2-(pyridin-4-yl)-pyrido[3,4-d]-pyrimidin-4-yl]-piperazine] | 1 to 10 µM |
| c1cc(-c2nc(N3CCNCC3)c3ccncc3n2)ccn1 [Example 1, 1-[2-(pyridin-4-yl)pyrido[3,4-d]pyrimidin-4-yl]piperazine] | 0.1 to 1 µM |
| COc1cncc2nc(-c3ccncc3)nc(N3CCN[C@@H](C)C3)c12 [Example 44, (3S)-1-[5-methoxy-2-(pyridin-4-yl)-pyrido[3,4-d]-pyrimidin-4-yl]-3-methylpiperazine] | 0.1 to 1 µM |
| CN(c1nc(-c2ccnc(Nc3ncc(F)cc3F)c2)nc2c(Cl)ncc(C3CC3)c12)C1CCNCC1 [Example 2170, {8-Chloro-5-cyclopropyl-2-[2-(3,5-difluoro-pyridin-2-ylamino)-pyridin-4-yl]-pyrido[3,4-d]pyrimidin-4-yl}-methyl-piperidin-4-yl-amine] | < 0.1 µM |
| COc1cncc2nc(-c3ccnc(Nc4ccc(C5CCOCC5)cc4)c3)nc(N[C@@H]3CCNC3)c12 [Example 361, (5-Methoxy-2-{2-[4-(tetrahydro-pyran-4-yl)-phenylamino]-pyridin-4-yl}-pyrido[3,4-d]pyrimidin-4-yl)-(R)-pyrrolidin-3-yl-amine] | < 0.1 µM |
| COc1cncc2nc(-c3ccncc3)nc(N3CCN[C@@H](C(O)c4ccc(F)cc4)C3)c12 (mixture of isomers) [Example 77, (4-fluorophenyl) [(2R)-4-[5-methoxy-2-(pyridin-4-yl)-pyrido[3,4-d]-pyrimidin-4-yl]-piperazin-2-yl]-methanol] | < 0.1 µM |
| COc1cncc2nc(-c3ccncc3)nc(NC[C@@H](N)Cc3ccccc3)c12 [Example 9, N-[(2S)-2-amino-3-phenylpropyl]-5-methoxy-2-(pyridin-4-yl)pyrido[3,4-d]-pyrimidin-4-amine] | < 0.1 µM |

Results, then the molecule that gave them:

| IC50 | SMILES |
| --- | --- |
| 0.1 to 1 µM | CN1CCN(c2cccc(Nc3cc(-c4nc(N5CCCCC5)c5c(C6CC6)cncc5n4)ccn3)c2)CC1 [Example 710] |
| < 0.1 µM | Clc1ccccc1-c1cc2c(-c3nc(N4CCNCC4)c4c(C5CC5)cncc4n3)ccnc2[nH]1 [Example 2202, 2-[2-(2-Chloro-phenyl)-1H-pyrrolo[2,3-b]pyridin-4-yl]-5-cyclopropyl-4-piperazin-1-yl-pyrido[3,4-d]pyrimidine] |
| 0.1 to 1 µM | Clc1cccc(Nc2cc(-c3nc(N4CCNCC4)c4c(C5CC5)cncc4n3)ccn2)c1Cl [Example 542, [4-(5-Cyclopropyl-4-piperazin-1-yl-pyrido[3,4-d]pyrimidin-2-yl)-pyridin-2-yl]-(2,3-dichloro-phenyl)-amine] |
| < 0.1 µM | FC(F)(F)c1cccc(Nc2cc(-c3nc(N4CCNCC4)c4c(C5CC5)cncc4n3)ccn2)n1 [Example 534, [4-(5-Cyclopropyl-4-piperazin-1-yl-pyrido[3,4-d]pyrimidin-2-yl)-pyridin-2-yl]-(6-trifluoromethyl-pyridin-2-yl)-amine] |
| < 0.1 µM | C[C@H]1CN(c2nc(-c3ccnc4[nH]c(C(C)(C)C)cc34)nc3cncc(C4CC4)c23)CCN1 [Example 2001, 2-(2-tert-Butyl-1H-pyrrolo[2,3-b]pyridin-4-yl)-5-cyclopropyl-4-((S)-3-methyl-piperazin-1-yl)-pyrido[3,4-d]pyrimidine] |
| 0.1 to 1 µM | CN1CCN(c2cccc(Nc3cc(-c4nc(N5CCC[C@@H](O)C5)c5c(C6CC6)cncc5n4)ccn3)n2)CC1 [Example 781, (R)-1-(5-Cyclopropyl-2-{2-[6-(4-methyl-piperazin-1-yl)-pyridin-2-ylamino]-pyridin-4-yl}-pyrido[3,4-d]pyrimidin-4-yl)-piperidin-3-ol] |
| 10 to 40 µM | Oc1nc(-c2ccnc(Nc3cccc(N4CCNCC4)c3)c2)nc2cnccc12 [Example 497, 2-[2-(3-piperazin-1-yl-phenylamino)-pyridin-4-yl]-pyrido[3,4-d]pyrimidin-4-ol] |
| < 0.1 µM | c1cc(-c2nc(N3CCNCC3)c3c(C4CC4)cncc3n2)c2cc(C3CCOCC3)[nH]c2n1 [Example 2111, 5-Cyclopropyl-4-piperazin-1-yl-2-[2-(tetrahydro-pyran-4-yl)-1H-pyrrolo[2,3-b]pyridin-4-yl]-pyrido[3,4-d]pyrimidine] |
| < 0.1 µM | Cc1ccc(Nc2cc(-c3nc(N4CCNCC4)c4c(C5CC5)cncc4n3)ccn2)c(Cl)c1 [Example 572, (2-Chloro-4-methyl-phenyl)-[4-(5-cyclopropyl-4-piperazin-1-yl-pyrido[3,4-d]pyrimidin-2-yl)-pyridin-2-yl]-amine] |
| < 0.1 µM | c1cc(-c2nc(N3CCNCC3)c3c(C4CC4)cncc3n2)cc(N[C@@H]2CCOC2)n1 [Example 509, [4-(5-Cyclopropyl-4-piperazin-1-yl-pyrido[3,4-d]pyrimidin-2-yl)-pyridin-2-yl]-(R)-tetrahydro-furan-3-yl-amine] |
| 1 to 10 µM | CNC(=O)C1CCN(c2nc(-c3ccnc(Nc4c(F)cccc4F)c3)nc3cncc(C4CC4)c23)CC1 [Example 669, 1-{5-Cyclopropyl-2-[2-(2,6-difluoro-phenylamino)-pyridin-4-yl]-pyrido[3,4-d]pyrimidin-4-yl}-piperidine-4-carboxylic acid methylamide] |
| < 0.1 µM | Cc1cc(F)c(Nc2cc(-c3nc(N4CCNCC4)c4c(C5CC5)cncc4n3)ccn2)c(F)c1 [Example 604, [4-(5-Cyclopropyl-4-piperazin-1-yl-pyrido[3,4-d]pyrimidin-2-yl)-pyridin-2-yl]-(2,6-difluoro-4-methyl-phenyl)-amine] |
| < 0.1 µM | Fc1cccnc1-c1cc2c(-c3nc(N4CCNCC4)c4c(C5CCC5)cncc4n3)ccnc2[nH]1 [Example 2180, 5-Cyclobutyl-2-[2-(3-fluoro-pyridin-2-yl)-1H-pyrrolo[2,3-b]pyridin-4-yl]-4-piperazin-1-yl-pyrido[3,4-d]pyrimidine] |
| < 0.1 µM | c1cc(-c2nc(N3CCNCC3)c3c(C4CCC4)cncc3n2)cc(NC2CCOCC2)n1 [Example 2210, [4-(5-Cyclobutyl-4-piperazin-1-yl-pyrido[3,4-d]pyrimidin-2-yl)-pyridin-2-yl]-(tetrahydro-pyran-4-yl)-amine] |
| < 0.1 µM | Cc1[nH]c2nccc(-c3nc(N4CCNCC4)c4c(C5CC5)cncc4n3)c2c1Cl [Example 2209, 2-(3-Chloro-2-methyl-1H-pyrrolo[2,3-b]pyridin-4-yl)-5-cyclopropyl-4-piperazin-1-yl-pyrido[3,4-d]pyrimidine] |
| 0.1 to 1 µM | CN1CCN(c2cccc(Nc3cc(-c4nc(N5CCC5)c5c(C6CC6)cncc5n4)ccn3)c2)CC1 [Example 761, [4-(4-Azetidin-1-yl-5-cyclopropyl-pyrido[3,4-d]pyrimidin-2-yl)-pyridin-2-yl]-[3-(4-methyl-piperazin-1-yl)-phenyl]-amine] |
